Laboratory results from patent US9695155B2, “Herbicidal substituted pyrimidinyloxy benzene compounds” (E. I. DU PONT DE NEMOURS AND COMPANY, priority 2013, dated 2017).

Columns and labels:
[1] = test system: barnyardgrass; assay: Test A preemergence; type: in vivo, Echinochloa crus-galli
Outline: (§1)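 Visual 0–100 rating (100 = complete control) taken about 10 d post-treatment relative to untreated checks. Preemergence: directed soil spray on sown loam/sand pots. Postemergence: seedlings 2–10 cm, 1–2 leaf. Non-phytotoxic solvent formulation with surfactant.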

[2] = test system: large (Lg) crabgrass; assay: Test A preemergence; type: in vivo, Digitaria sanguinalis
Outline: as §1

[3] = test system: giant foxtail; assay: Test A preemergence; type: in vivo, Setaria faberii
Outline: as §1

[4] = test system: morningglory; assay: Test A preemergence; type: in vivo, Ipomoea spp.
Outline: as §1

[5] = test system: pigweed; assay: Test A preemergence; type: in vivo, Amaranthus retroflexus
Outline: as §1

[6] = test system: velvetleaf; assay: Test A preemergence; type: in vivo, Abutilon theophrasti
Outline: as §1

[7] = test system: wheat; assay: Test A preemergence; type: in vivo, Triticum aestivum
Outline: as §1

[8] = test system: corn; assay: Test A preemergence; type: in vivo, Zea mays
Outline: as §1

[9] = test system: barnyardgrass; assay: Test A postemergence; type: in vivo, Echinochloa crus-galli
Outline: as §1

[10] = test system: large (Lg) crabgrass; assay: Test A postemergence; type: in vivo, Digitaria sanguinalis
Outline: as §1

[11] = test system: giant foxtail; assay: Test A postemergence; type: in vivo, Setaria faberii
Outline: as §1

[12] = test system: morningglory; assay: Test A postemergence; type: in vivo, Ipomoea spp.
Source text: Seeds of plant species selected from barnyardgrass (Echinochloa crus-galli), kochia (Kochia scoparia), ragweed (common ragweed, Ambrosia elatior), Italian ryegrass (Lolium multiflorum), large (Lg) crabgrass (Digitaria sanguinalis), giant foxtail (Setaria faberii), morningglory (Ipomoea spp.), pigweed (Amaranthus retroflexus), velvetleaf (Abutilon theophrasti), wheat (Triticum aestivum), and corn (Zea mays) were planted into a blend of loam soil and sand and treated preemergence with a directed soil spray using test chemicals formulated in a non-phytotoxic solvent mixture which included a surfactant.
At the same time, plants selected from these crop and weed species and also blackgrass (Alopecurus myosuroides), and galium (catchweed bedstraw, Galium aparine) were planted in pots containing the same blend of loam soil and sand and treated with postemergence applications of test chemicals formulated in the same manner. Plants ranged in height from 2 to 10 cm and were in the one- to two-leaf stage for the postemergence treatment. Treated plants and untreated controls were maintained in a greenhouse for approximately 10 days, after which time all treated plants were compared to untreated controls and visually evaluated for injury. Plant response ratings, summarized in Table A, are based on a 0 to 100 scale where 0 is no effect and 100 is complete control. A dash (-) response means no test result.

[13] = test system: pigweed; assay: Test A postemergence; type: in vivo, Amaranthus retroflexus
Outline: as §1

[14] = test system: velvetleaf; assay: Test A postemergence; type: in vivo, Abutilon theophrasti
Outline: as §1

[15] = test system: wheat; assay: Test A postemergence; type: in vivo, Triticum aestivum
Outline: as §1

[16] = test system: corn; assay: Test A postemergence; type: in vivo, Zea mays
Outline: as §1

[17] = test system: rice; assay: Test B flooded paddy test; type: in vivo, Oryza sativa; conditions: Flood, 250 g ai/ha; 0 to 100 scale where 0 is no effect and 100 is complete control
Procedure: (§2) Plant species in the flooded paddy test selected from rice (Oryza sativa), sedge, umbrella (small-flower umbrella sedge, Cyperus difformis), (Heteranthera limosa), and barnyardgrass (Echinochloa crus-galli) were grown to the 2-leaf stage for testing. At time of treatment, test pots were flooded to 3 cm above the soil surface, treated by application of test compounds directly to the paddy water, and then maintained at that water depth for the duration of the test. Treated plants and controls were maintained in a greenhouse for 13 to 15 days, after which time all species were compared to controls and visually evaluated. Plant response ratings, summarized in Table B, are based on a scale of 0 to 100 where 0 is no effect and 100 is complete control. A dash (-) response means no test result.

[18] = test system: sedge, umbrella; assay: Test B flooded paddy test; type: in vivo, Cyperus difformis; conditions: Flood, 250 g ai/ha; 0 to 100 scale where 0 is no effect and 100 is complete control
Outline: (§3)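 Compound added straight to paddy water, with pots kept flooded 3 cm above soil, on plants grown to the 2-leaf stage. Visual scoring 0-100 (100 = complete control) against untreated controls after 13 to 15 greenhouse days.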

[19] = test system: Heteranthera limosa; assay: Test B flooded paddy test; type: in vivo; conditions: Flood, 250 g ai/ha; 0 to 100 scale where 0 is no effect and 100 is complete control
Outline: as §3

[20] = test system: barnyardgrass; assay: Test B flooded paddy test; type: in vivo, Echinochloa crus-galli; conditions: Flood, 250 g ai/ha; 0 to 100 scale where 0 is no effect and 100 is complete control
Procedure: as §2

[21] = 125 g ai/ha, 0 to 100 scale where 0 is no effect and 100 is complete control
[22] = 500 g ai/ha, 0 to 100 scale, 0 no effect, 100 complete control, approx. 10 days
[23] = 500 g ai/ha, 0 to 100 scale, 0 no effect, 100 complete control
[24] = 1000 g ai/ha, 0 to 100 scale, 0 no effect, 100 complete control
[25] = 1000 g ai/ha, 0 to 100 scale, 0 no effect, 100 complete control, approx. 10 days

FC(F)(F)c1ccn(-c2ccccc2Oc2ncc(Br)cn2)n1 [Compound 1]
100: Crabgrass, Large plant response rating [2, 22] | Foxtail, Giant plant response rating [3, 22] | Pigweed plant response rating [5, 22] | Plant response rating, Pigweed [13, 23]
60: Foxtail, Giant plant response rating [3, 21] | Pigweed plant response rating [5, 21] | Plant response rating, Foxtail, Giant [11, 23]
10: Plant response rating, Barnyardgrass [9, 21] | Plant response rating, Foxtail, Giant [11, 21] | Plant response rating, Corn [16, 23]
0: Morningglory plant response rating [4, 21] | Morningglory plant response rating [4, 22] | Velvetleaf plant response rating [6, 21] | Wheat plant response rating [7, 21] | Wheat plant response rating [7, 22] | Corn plant response rating [8, 21] | Corn plant response rating [8, 22] | Plant response rating, Morningglory [12, 21] | Plant response rating, Wheat [15, 21] | Plant response rating, Wheat [15, 23] | Plant response rating, Corn [16, 21] | Plant response rating, Rice [17] | Plant response rating, Sedge, Umbrella [18] | Plant response rating, Ducksalad [19] | Plant response rating, Barnyardgrass [20]
70: Barnyardgrass plant response rating [1, 22] | Plant response rating, Velvetleaf [14, 23]
50: Crabgrass, Large plant response rating [2, 21] | Plant response rating, Crabgrass, Large [10, 23] | Plant response rating, Pigweed [13, 21]
30: Plant response rating, Barnyardgrass [9, 23]
20: Barnyardgrass plant response rating [1, 21] | Velvetleaf plant response rating [6, 22] | Plant response rating, Crabgrass, Large [10, 21] | Plant response rating, Morningglory [12, 23] | Plant response rating, Velvetleaf [14, 21]

FC(F)(F)c1cnc(Oc2ccccc2-n2cc(Cl)cn2)nc1 [Compound 6]
15: Plant response rating, Rice [17]
65: Plant response rating, Ducksalad [19]
10: Morningglory plant response rating [4, 22]
0: Morningglory plant response rating [4, 21] | Wheat plant response rating [7, 21] | Corn plant response rating [8, 21] | Plant response rating, Barnyardgrass [20]
55: Plant response rating, Sedge, Umbrella [18]
80: Plant response rating, Foxtail, Giant [11, 21]
90: Barnyardgrass plant response rating [1, 22] | Crabgrass, Large plant response rating [2, 21] | Foxtail, Giant plant response rating [3, 21] | Plant response rating, Wheat [15, 23]
60: Plant response rating, Corn [16, 23]
100: Crabgrass, Large plant response rating [2, 22] | Foxtail, Giant plant response rating [3, 22] | Pigweed plant response rating [5, 21] | Pigweed plant response rating [5, 22] | Velvetleaf plant response rating [6, 21] | Velvetleaf plant response rating [6, 22] | Plant response rating, Barnyardgrass [9, 23] | Plant response rating, Crabgrass, Large [10, 23] | Plant response rating, Foxtail, Giant [11, 23] | Plant response rating, Pigweed [13, 21] | Plant response rating, Pigweed [13, 23] | Plant response rating, Velvetleaf [14, 21] | Plant response rating, Velvetleaf [14, 23]
50: Plant response rating, Crabgrass, Large [10, 21]
70: Plant response rating, Morningglory [12, 23]
20: Barnyardgrass plant response rating [1, 21] | Corn plant response rating [8, 22] | Plant response rating, Corn [16, 21]
30: Wheat plant response rating [7, 22]
40: Plant response rating, Barnyardgrass [9, 21] | Plant response rating, Morningglory [12, 21] | Plant response rating, Wheat [15, 21]

Fc1cnc(Oc2ccccc2-n2cc(Cl)cn2)nc1 [Compound 11]
0: Wheat plant response rating [7, 21] | Wheat plant response rating [7, 22] | Corn plant response rating [8, 21] | Plant response rating, Wheat [15, 21] | Plant response rating, Rice [17] | Plant response rating, Sedge, Umbrella [18] | Plant response rating, Barnyardgrass [20]
30: Morningglory plant response rating [4, 21] | Corn plant response rating [8, 22]
50: Plant response rating, Corn [16, 23] | Plant response rating, Ducksalad [19]
60: Morningglory plant response rating [4, 22] | Plant response rating, Morningglory [12, 21]
100: Barnyardgrass plant response rating [1, 22] | Crabgrass, Large plant response rating [2, 22] | Foxtail, Giant plant response rating [3, 22] | Pigweed plant response rating [5, 22] | Velvetleaf plant response rating [6, 22] | Plant response rating, Morningglory [12, 23] | Plant response rating, Pigweed [13, 21] | Plant response rating, Pigweed [13, 23] | Plant response rating, Velvetleaf [14, 21] | Plant response rating, Velvetleaf [14, 23]
20: Plant response rating, Wheat [15, 23]
70: Barnyardgrass plant response rating [1, 21] | Plant response rating, Crabgrass, Large [10, 21] | Plant response rating, Foxtail, Giant [11, 21]
10: Plant response rating, Barnyardgrass [9, 21] | Plant response rating, Corn [16, 21]
90: Crabgrass, Large plant response rating [2, 21] | Foxtail, Giant plant response rating [3, 21] | Pigweed plant response rating [5, 21] | Velvetleaf plant response rating [6, 21] | Plant response rating, Barnyardgrass [9, 23] | Plant response rating, Crabgrass, Large [10, 23] | Plant response rating, Foxtail, Giant [11, 23]

Brc1cnc(Oc2ccccc2-n2cccn2)nc1 [Compound 13]
20: Wheat plant response rating [7, 25]
0: Morningglory plant response rating [4, 25] | Plant response rating, Corn [8, 24] | Plant response rating, Rice [17] | Plant response rating, Sedge, Umbrella [18] | Plant response rating, Barnyardgrass [20]
80: Plant response rating, Barnyardgrass [1, 24]
40: Plant response rating, Corn [16, 24]
30: Plant response rating, Ducksalad [19]
100: Plant response rating, Crabgrass, Large [2, 24] | Foxtail, Giant plant response rating [3, 25] | Pigweed plant response rating [5, 25] | Velvetleaf plant response rating [6, 25] | Plant response rating, Foxtail, Giant [11, 24] | Plant response rating, Pigweed [13, 24] | Plant response rating, Velvetleaf [14, 24]
90: Plant response rating, Barnyardgrass [9, 24] | Plant response rating, Crabgrass, Large [10, 24] | Plant response rating, Morningglory [12, 24]
60: Plant response rating, Wheat [15, 24]
